Laboratory results taken from ChEMBL document CHEMBL1144764, “A molecular modeling study of the interaction of 2'-fluoro-substituted analogues of dUMP/FdUMP with thymidylate synthase” (Bioorg Med Chem Lett, 2008).

Target: Thymidylate synthase (Homo sapiens, UniProt P04818)
Sequence (P04818 whole entry): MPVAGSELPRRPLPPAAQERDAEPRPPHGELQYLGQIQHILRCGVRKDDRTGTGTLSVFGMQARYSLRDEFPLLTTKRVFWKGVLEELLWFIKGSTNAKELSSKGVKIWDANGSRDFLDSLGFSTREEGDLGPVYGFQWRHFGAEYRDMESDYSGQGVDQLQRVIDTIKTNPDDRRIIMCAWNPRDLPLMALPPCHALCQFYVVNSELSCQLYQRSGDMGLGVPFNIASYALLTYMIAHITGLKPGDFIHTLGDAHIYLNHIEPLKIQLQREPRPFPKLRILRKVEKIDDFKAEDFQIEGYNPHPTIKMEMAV
Description: Binding affinity to human recombinant thymidylate synthase

| Structure (SMILES) | Ki [µM] |
| --- | --- |
| O=c1ccn([C@@H]2O[C@H](COP(=O)(O)O)[C@@H](O)C2(F)F)c(=O)[nH]1 | 433 |
| O=c1ccn([C@@H]2O[C@H](COP(=O)(O)O)[C@@H](O)[C@@H]2F)c(=O)[nH]1 | 10.3 |
